Results taken from patent US8002614B2, “Microbiocidal control in the processing of meat-producing four-legged animals” (priority 2005, dated 2011).

Format: physicochemical
Excerpt: In many high output meat packing plants, space to install the biocide feeder in an easily accessible location is not readily available. The smaller area required for a BCDMH feeder system relative to a DBDMH system, is advantageous with respect to installation flexibility. For example, because of higher bromine output, a plant utilizing BCDMH may utilize a smaller number of biocide feeders than a plant utilizing DBDMH feeders. Also, because each point of application of aqueous biocide in the plant requires a certain bromine residual in a certain flow of water, the much higher output of bromine from a BCDMH feeder to achieve the desired bromine residual, requires much less water flow to the feeder for BCDMH than DBDMH. Since the source of water and the feeder are often quite distant from each other, a need for providing a new line just for the feeder is disadvantageous and expensive. But, pursuant to this invention, oftentimes excess water supplied to existing equipment near the feeder can be employed thereby eliminating the need for installation of a new special water line to the feeder. In other words, since BCDMH requires less than half the water flow of DBDMH, in many situations this water source would have sufficient flow for BCDMH while that same flow would be insufficient for DBDMH. […]

| water solubility [ppm] | Compound |
| --- | --- |
| 405 | CC1(C)C(=O)N(Br)C(=O)N1Br [DBDMH, 1,3-dibromo-5,5-dimethylhydantoin] |
| 890 | CC1(C)C(=O)N(Cl)C(=O)N1Br [BCDMH, N,N′-bromochloro-5,5-dimethylhydantoin] |
